Results from patent US10932466B2, “Fungicidal compositions” (SYNGENTA PARTICIPATIONS AG, priority 2016, dated 2021).
Read-outs that look alike come from different tables or passages of the source.

Key:
Format in all cases: cell-based
[1] = tested on: Septoria tritici; test: Septoria tritici (leaf blotch) growth inhibition in PDB, 96-well microtiter plate, photometric after 72 hrs; conditions: Zymoseptoria tritici; for inhibition at 0.0008 ppm: 1.001 0.0008 ppm alone
Method: (§1) I) Septoria tritici (Leaf Blotch): Conidia of the fungus from cryogenic storage were directly mixed into nutrient broth (PDB potato dextrose broth). After placing a (DMSO) solution of the test compounds into a microtiter plate (96-well format), the nutrient broth containing the fungal spores was added. The test plates were incubated at 24 C and the inhibition of growth was determined photometrically after 72 hrs.

[2] = tested on: Botrytis cinerea; test: Botrytis cinerea (gray mould) growth inhibition in PDB, 96-well microtiter plate, photometric after 72 hrs; conditions: for inhibition at 0.0063 ppm: 1.001 0.0063 ppm alone
Method: as §1, with “V) Botrytis cinerea (Gray Mould):” for “I) Septoria tritici (Leaf Blotch):”

[3] = tested on: Rhizoctonia solani; test: Rhizoctonia solani (Thanatephorus cucumeris) growth inhibition in PDB, 96-well microtiter plate, photometric and visual after 3-4 days; conditions: for inhibition at 0.0063 ppm: 1.001 0.0063 ppm alone; for inhibition at 0.0125 ppm: 1.001 0.0125 ppm alone; for inhibition at 0.025 ppm: 1.001 0.0250 ppm alone; for inhibition at 0.05 ppm: 1.001 0.0500 ppm alone; for inhibition at 0.1 ppm: 1.001 0.1000 ppm alone
Method: VI) Rhizoctonia solani (Thanatephorus cucumeris) Mycelial fragments of a newly grown liquid culture of the fungus were directly mixed into nutrient broth (PDB potato dextrose broth). After placing a (DMSO) solution of the test compounds into a microtiter plate (96-well format), the nutrient broth containing the fungal material was added. The test plates were incubated at 24° C. and the inhibition of growth was determined photometrically and visually 3-4 days after application.

[4] = tested on: Venturia inaequalis; test: Venturia inaequalis (apple scab) growth inhibition in PDB, 96-well microtiter plate, photometric after 7 days; conditions: for inhibition at 0.0016 ppm: 1.001 0.0016 ppm alone; for inhibition at 0.0031 ppm: 1.001 0.0031 ppm alone
Method: as §1, with “IV) Venturia inaeaualis (Apple Scab):” for “I) Septoria tritici (Leaf Blotch):”, “7 days.” for “72 hrs.”

[5] = tested on: Alternaria solani; test: Alternaria solani (early blight tomato/potato) growth inhibition in PDB, 96-well microtiter plate, photometric after 48 hrs; conditions: for Compound 1.001 inhibition: 1.001 0.0000 ppm, Table 11; for inhibition at 0.0008 ppm: 1.001 0.0008 ppm alone
Method: III) Altemaria solani (Early Blight Tomato/Potato):
as §1, with “Conidia” for “I) Septoria tritici (Leaf Blotch): Conidia”, “48” for “72”

[6] = tested on: Mycosphaerella arachidis, syn. Cercospora arachidicola; test: Mycosphaerella arachidis (peanut brown leaf spot) growth inhibition in PDB, 96-well microtiter plate, photometric after 5-6 days
Method: as §1, with “II) Mycosphaerella arachidis, syn. Cercospora arachidicola (Peanut Brown Leaf Soot):” for “I) Septoria tritici (Leaf Blotch):”, “approximately 5-6 days.” for “72 hrs.”

[7] = Table 8, read-out: Compound 1.001 inhibition
[8] = Table 14, read-out: Compound 1.001 inhibition
[9] = Table 6, read-out: Compound 1.001 inhibition
[10] = Table 12, read-out: Compound 1.001 inhibition

Compound: Cc1nnc(Cl)c(-c2c(F)cccc2F)c1-c1ccccc1 [(IIc), 4-(2,6-difluorophenyl)-3-chloro-6-methyl-5-phenyl-pyridazine]
- inhibition at 0.0156 ppm ([1]; (IIc) 0.0156 ppm alone, Table 4): 1%
- inhibition at 0.0156 ppm ([2]; (IIc) 0.0156 ppm alone, Table 7): 5%
- inhibition at 0.0313 ppm ([2]; (IIc) 0.0313 ppm alone, Table 7, read-out: (IIc) Inhibition): 4%
- inhibition at 0.0313 ppm ([3]; (IIc) 0.0313 ppm alone, Table 8): 5%
- inhibition at 0.0625 ppm ([3]; (IIc) 0.0625 ppm alone, Table 8): 31%
- inhibition at 0.125 ppm ([3]; (IIc) 0.1250 ppm alone, Table 8): 85%
- inhibition at 0.25 ppm ([3]; (IIc) 0.2500 ppm alone, Table 8): 88%
- inhibition at 0.0078 ppm ([4]; (IIc) 0.0078 ppm alone, Table 6): 0%
- inhibition at 0.0156 ppm ([4]; (IIc) 0.0156 ppm alone, Table 6, read-out: (IIc) Inhibition): 6%
- inhibition at 0.0313 ppm ([4]; (IIc) 0.0313 ppm alone, Table 6, read-out: (IIc) Inhibition): 0%
- inhibition at 0.002 ppm ([5]; Alternaria solani, (IIc) 0.0020 ppm alone, Table 5): 0%

Compound: Cc1nnc(C#N)c(-c2c(F)cccc2F)c1-c1ccccc1 [(IId), 4-(2,6-difluorophenyl)-6-methyl-5-phenyl-pyridazine-3-carbonitrile]
- inhibition at 0.0313 ppm ([1]; (IId) 0.0313 ppm alone, Table 9): 3%
- inhibition at 0.0625 ppm ([1]; (IId) 0.0625 ppm alone, Table 9): 8%
- inhibition at 0.0313 ppm ([2]; (IId) 0.0313 ppm alone, Table 13, read-out: (IId) Inhibition): 0%
- inhibition at 0.0625 ppm ([2]; (IId) 0.0625 ppm alone, Table 13): 0%
- inhibition at 0.0039 ppm ([6]; (IId) 0.0039 ppm alone, Table 10): 5%
- inhibition at 0.0313 ppm ([6]; (IId) 0.0313 ppm alone, Table 10): 5%
- inhibition at 0.5 ppm ([3]; (IId) 0.5000 ppm alone, Table 14): 31%
- inhibition at 0.0156 ppm ([4]; (IId) 0.0156 ppm alone, Table 12, read-out: (IId) Inhibition): 0%
- inhibition at 0.0313 ppm ([4]; (IId) 0.0313 ppm alone, Table 12, read-out: (IId) Inhibition): 15%
- inhibition at 0.0625 ppm ([4]; (IId) 0.0625 ppm alone, Table 12): 0%

Compound: CON(C(=O)c1cn(C)nc1C(F)F)C(C)Cc1c(Cl)cc(Cl)cc1Cl (stereo not drawn) [Compound 1.001, 3-(difluoromethyl)-N-methoxy-1-methyl-N-[1-methyl-2-(2,4,6-trichlorophenyl)ethyl]pyrazole-4-carboxamide]
- inhibition at 0.0008 ppm ([1]; Table 4, read-out: Compound 1.001 inhibition): 49%
- inhibition at 0.0008 ppm ([1]; Table 9, read-out: Compound 1.001 inhibition): 45%
- inhibition at 0.0016 ppm ([1]; 1.001 0.0016 ppm alone, Table 9, read-out: Compound 1.001 inhibition): 81%
- inhibition at 0.0063 ppm ([2]; Table 7, read-out: Compound 1.001 inhibition): 30%
- inhibition at 0.0063 ppm ([2]; Table 13, read-out: Compound 1.001 inhibition): 34%
- inhibition at 0.0004 ppm ([6]; 1.001 0.0004 ppm alone, Table 10, read-out: Compound 1.001 inhibition): 47%
- inhibition at 0.0031 ppm ([3]; 1.001 0.0031 ppm alone, Table 8, read-out: Compound 1.001 inhibition): 13%
- inhibition at 0.0063 ppm [3, 7]: 16%
- inhibition at 0.0063 ppm [3, 8]: 0%
- inhibition at 0.0125 ppm [3, 7]: 0%
- inhibition at 0.0125 ppm [3, 8]: 0%
- inhibition at 0.025 ppm [3, 7]: 0%
- inhibition at 0.025 ppm [3, 8]: 9%
- inhibition at 0.05 ppm [3, 7]: 15%
- inhibition at 0.05 ppm [3, 8]: 0%
- inhibition at 0.1 ppm [3, 7]: 0%
- inhibition at 0.1 ppm [3, 8]: 0%
- inhibition at 0.0016 ppm [4, 9]: 62%
- inhibition at 0.0016 ppm [4, 10]: 50%
- inhibition at 0.0031 ppm [4, 9]: 84%
- inhibition at 0.0031 ppm [4, 10]: 81%
- Compound 1.001 inhibition ([5]; (IId) 0.0039 ppm): 9%
- Compound 1.001 inhibition ([5]; (IId) 0.0078 ppm): 6%
- Compound 1.001 inhibition ([5]; (IId) 0.0156 ppm): 10%
- Compound 1.001 inhibition ([5]; (IId) 0.0625 ppm): 6%
- Compound 1.001 inhibition ([5]; (IId) 0.1250 ppm): 0%
- inhibition at 0.0004 ppm ([5]; Alternaria solani, 1.001 0.0004 ppm alone, Table 11, read-out: Compound 1.001 inhibition): 26%
- inhibition at 0.0008 ppm ([5]; Alternaria solani, Table 5, read-out: Compound 1.001 inhibition): 23%
- inhibition at 0.0008 ppm ([5]; Alternaria solani, Table 11, read-out: Compound 1.001 inhibition): 34%
- inhibition at 0.0016 ppm ([5]; Alternaria solani, 1.001 0.0016 ppm alone, Table 11, read-out: Compound 1.001 inhibition): 60%
